One may read the IC50 as the concentration needed to halve the response being measured. What is called MIC is the least concentration at which growth counts as inhibited.

From ChEMBL document CHEMBL1148963, “Four new eudesmanes from Caragana intermedia and their biological activities” (J Nat Prod, 2004) come the findings set out here.

Assay [1] concerns Human immunodeficiency virus 1. Nature of the assay: Antiviral activity against HIV1 3B infected in human MT2 cells. It is filed as functional, organism-based. The following applies: Human immunodeficiency virus 1, 3B.
The next assay relates to C2C12. Nature of the assay: Increase in glucose consumption in mouse C2C12 cells assessed as improved glucose transformation. It is filed as functional, cell-based.
In another assay the test system is Pyricularia oryzae. The assay can be described thus: Antimicrobial activity against Pyricularia oryzae P-2b. The format is functional.

≈ marks a conversion by molar mass, not a printed value.

Take `C=C1CC[C@@H](O)[C@]2(C)CC[C@H](C(C)C)[C@@H](O)[C@H]12`: in assay [1], the half-inhibitory concentration (IC50) was 10 µg/mL (≈ 42 µM).

`C=C1CC[C@@H](O)[C@]2(C)CC[C@@H](C(C)C)C[C@@]12O`: in the assay on C2C12, the IC50 was 10.7 µg/mL (≈ 44.9 µM). The compound also showed a minimum inhibitory concentration (MIC) in the assay on Pyricularia oryzae of 20 µg/mL (≈ 83.9 µM).

In the assay on Pyricularia oryzae, `C=C1CC[C@@H](O)[C@]2(C)CC[C@](O)(C(C)C)C[C@@H]12` had an MIC of 16 µg/mL (≈ 67.1 µM).

Compound `C=C1CC[C@@H](O)[C@]2(C)CC[C@@](O)(C(C)C)C[C@@H]12` showed an MIC against Pyricularia oryzae of 12 µg/mL (≈ 50.3 µM). The MIC values of the last two compounds are within 1.5-fold of each other.
